Results: publication PMC4076210, “Discovery of Novel AKT Inhibitors with Enhanced Anti-Tumor Effects in Combination with the MEK Inhibitor” (PLoS ONE, 2014)
Where two headings read alike, the source gives them in different places.

How the values were obtained:
Type in all cases: biochemical
MRCKα(h) = target: T1, MRCKα(h) (Homo sapiens, UniProt Q5VT25); assay: Kinase panel
T1 construct: purchased Millipore KinaseProfiler

PKG1β(h) = target: T2, PKG1β(h) (Homo sapiens, UniProt Q13976); assay: Kinase panel
T2 construct: purchased Millipore KinaseProfiler
T2 sequence (Q13976 1-686 isoform Q13976-2): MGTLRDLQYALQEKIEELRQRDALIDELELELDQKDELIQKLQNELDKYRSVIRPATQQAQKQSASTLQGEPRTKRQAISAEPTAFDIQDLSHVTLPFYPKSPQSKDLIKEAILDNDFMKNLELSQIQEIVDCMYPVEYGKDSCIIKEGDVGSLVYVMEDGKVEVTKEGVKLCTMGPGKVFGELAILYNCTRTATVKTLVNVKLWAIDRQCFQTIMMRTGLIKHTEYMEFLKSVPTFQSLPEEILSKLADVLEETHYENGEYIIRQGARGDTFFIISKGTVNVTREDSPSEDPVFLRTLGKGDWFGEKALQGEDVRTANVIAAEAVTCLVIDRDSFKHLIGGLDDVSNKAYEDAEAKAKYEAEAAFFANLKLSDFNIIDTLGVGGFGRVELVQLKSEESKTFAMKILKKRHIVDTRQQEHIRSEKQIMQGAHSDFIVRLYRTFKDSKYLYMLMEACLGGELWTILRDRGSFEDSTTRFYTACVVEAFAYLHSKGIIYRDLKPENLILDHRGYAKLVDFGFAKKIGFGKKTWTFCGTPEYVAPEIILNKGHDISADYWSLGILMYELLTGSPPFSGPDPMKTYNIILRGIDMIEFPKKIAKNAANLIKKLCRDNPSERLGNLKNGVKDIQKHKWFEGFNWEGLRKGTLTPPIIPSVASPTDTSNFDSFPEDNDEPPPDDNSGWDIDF

GSK3β(h) = target: T3, GSK3β(h) (Homo sapiens, UniProt P49841); assay: Kinase panel
T3 construct: purchased Millipore KinaseProfiler

FGFR4(h) = target: T4, FGFR4(h) (Homo sapiens, UniProt P22455); assay: Kinase panel
T4 construct: purchased Millipore KinaseProfiler

NEK6(h) = target: T5, NEK6(h) (Homo sapiens, UniProt Q9HC98); assay: Kinase panel
T5 construct: purchased Millipore KinaseProfiler

RSK1 = RSK1 (Homo sapiens, UniProt Q15418); assay: Kinase IC50 assay
IRR(h) = target: T6, IRR(h) (Homo sapiens, UniProt P14616); assay: Kinase panel
T6 construct: purchased Millipore KinaseProfiler

PKCα(h) = target: T7, PKCα(h) (Homo sapiens, UniProt P17252); assay: Kinase panel
T7 construct: purchased Millipore KinaseProfiler

GRK5(h) = target: T8, GRK5(h) (Homo sapiens, UniProt P34947); assay: Kinase panel
T8 construct: purchased Millipore KinaseProfiler

MSK1(h) = target: T9, MSK1(h) (Homo sapiens, UniProt O75582); assay: Kinase panel
T9 construct: purchased Millipore KinaseProfiler

Pim-3(h) = target: T10, Pim-3(h) (Homo sapiens, UniProt Q86V86); assay: Kinase panel
T10 construct: purchased Millipore KinaseProfiler

Abl (Q252H) (h) = target: T11, Abl (Q252H) (h) (Homo sapiens, UniProt P00519, Q252H); assay: Kinase panel
T11 construct: purchased Millipore KinaseProfiler

ROCK-II(r) = target: T12, ROCK-II(r) (Rattus norvegicus, UniProt Q62868); assay: Kinase panel
T12 construct: purchased Millipore KinaseProfiler

EphA3(h) = target: T13, EphA3(h) (Homo sapiens, UniProt P29320); assay: Kinase panel
T13 construct: purchased Millipore KinaseProfiler
T13 sequence (P29320 21-983): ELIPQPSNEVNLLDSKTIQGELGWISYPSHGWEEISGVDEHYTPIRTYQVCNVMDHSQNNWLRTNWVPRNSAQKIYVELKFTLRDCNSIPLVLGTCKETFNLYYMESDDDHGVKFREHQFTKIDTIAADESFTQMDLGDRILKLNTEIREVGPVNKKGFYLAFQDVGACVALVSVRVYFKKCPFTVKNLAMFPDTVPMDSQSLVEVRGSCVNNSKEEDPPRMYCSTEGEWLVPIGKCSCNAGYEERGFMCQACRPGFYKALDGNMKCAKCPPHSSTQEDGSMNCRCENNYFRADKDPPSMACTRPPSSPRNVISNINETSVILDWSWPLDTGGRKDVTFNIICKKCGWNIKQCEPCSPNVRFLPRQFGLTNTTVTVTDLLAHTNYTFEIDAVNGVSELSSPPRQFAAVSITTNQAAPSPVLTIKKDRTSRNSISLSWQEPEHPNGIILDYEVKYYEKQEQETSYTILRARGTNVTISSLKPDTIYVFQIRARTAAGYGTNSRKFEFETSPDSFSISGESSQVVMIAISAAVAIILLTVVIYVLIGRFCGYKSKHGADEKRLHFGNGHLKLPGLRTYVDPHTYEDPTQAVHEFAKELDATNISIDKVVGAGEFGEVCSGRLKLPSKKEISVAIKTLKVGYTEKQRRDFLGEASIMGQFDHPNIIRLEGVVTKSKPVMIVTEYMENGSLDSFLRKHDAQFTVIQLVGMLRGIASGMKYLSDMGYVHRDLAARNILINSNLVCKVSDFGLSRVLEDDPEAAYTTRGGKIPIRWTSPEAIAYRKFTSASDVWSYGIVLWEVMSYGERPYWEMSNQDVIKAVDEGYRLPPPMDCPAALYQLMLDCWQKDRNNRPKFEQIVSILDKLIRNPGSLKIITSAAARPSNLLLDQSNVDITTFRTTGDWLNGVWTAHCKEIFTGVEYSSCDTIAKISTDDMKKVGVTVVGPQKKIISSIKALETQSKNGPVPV

T4 sequence (P22455 22-802): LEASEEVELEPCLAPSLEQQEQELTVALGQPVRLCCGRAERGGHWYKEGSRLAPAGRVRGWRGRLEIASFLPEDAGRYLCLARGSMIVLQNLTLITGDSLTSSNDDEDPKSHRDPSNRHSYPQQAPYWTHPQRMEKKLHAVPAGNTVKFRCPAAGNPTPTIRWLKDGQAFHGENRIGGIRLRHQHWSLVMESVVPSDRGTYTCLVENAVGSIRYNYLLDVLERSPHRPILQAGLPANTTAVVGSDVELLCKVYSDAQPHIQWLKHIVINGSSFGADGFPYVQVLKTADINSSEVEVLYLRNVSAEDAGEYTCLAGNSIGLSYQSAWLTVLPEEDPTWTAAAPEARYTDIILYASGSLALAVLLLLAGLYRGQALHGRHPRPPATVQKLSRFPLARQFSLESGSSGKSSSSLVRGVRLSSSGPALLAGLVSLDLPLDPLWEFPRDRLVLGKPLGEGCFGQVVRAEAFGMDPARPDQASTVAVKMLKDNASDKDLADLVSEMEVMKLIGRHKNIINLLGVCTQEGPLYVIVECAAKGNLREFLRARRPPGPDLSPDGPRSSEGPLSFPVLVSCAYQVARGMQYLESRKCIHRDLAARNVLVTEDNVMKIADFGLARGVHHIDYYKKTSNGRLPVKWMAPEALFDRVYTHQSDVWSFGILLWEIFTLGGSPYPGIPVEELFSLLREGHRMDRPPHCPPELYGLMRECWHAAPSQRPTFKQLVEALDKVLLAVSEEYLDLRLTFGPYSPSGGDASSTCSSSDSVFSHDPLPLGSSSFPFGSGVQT
T8 sequence (P34947 whole entry): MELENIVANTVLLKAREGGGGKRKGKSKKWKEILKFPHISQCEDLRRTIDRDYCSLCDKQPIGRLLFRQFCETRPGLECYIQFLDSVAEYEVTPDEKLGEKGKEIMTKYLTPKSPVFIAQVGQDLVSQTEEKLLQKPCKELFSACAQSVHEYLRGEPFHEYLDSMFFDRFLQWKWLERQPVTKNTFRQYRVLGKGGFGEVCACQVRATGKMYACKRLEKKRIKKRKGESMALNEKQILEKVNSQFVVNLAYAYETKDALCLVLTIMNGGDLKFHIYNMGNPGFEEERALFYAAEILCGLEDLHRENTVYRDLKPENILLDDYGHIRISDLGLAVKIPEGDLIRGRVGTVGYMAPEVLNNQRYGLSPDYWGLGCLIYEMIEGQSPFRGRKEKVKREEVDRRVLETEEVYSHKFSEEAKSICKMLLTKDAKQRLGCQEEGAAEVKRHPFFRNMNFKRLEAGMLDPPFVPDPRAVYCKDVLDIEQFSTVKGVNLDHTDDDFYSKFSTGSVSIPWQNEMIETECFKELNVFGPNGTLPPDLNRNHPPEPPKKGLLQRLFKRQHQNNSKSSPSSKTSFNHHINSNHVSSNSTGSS
T5 sequence (Q9HC98 whole entry): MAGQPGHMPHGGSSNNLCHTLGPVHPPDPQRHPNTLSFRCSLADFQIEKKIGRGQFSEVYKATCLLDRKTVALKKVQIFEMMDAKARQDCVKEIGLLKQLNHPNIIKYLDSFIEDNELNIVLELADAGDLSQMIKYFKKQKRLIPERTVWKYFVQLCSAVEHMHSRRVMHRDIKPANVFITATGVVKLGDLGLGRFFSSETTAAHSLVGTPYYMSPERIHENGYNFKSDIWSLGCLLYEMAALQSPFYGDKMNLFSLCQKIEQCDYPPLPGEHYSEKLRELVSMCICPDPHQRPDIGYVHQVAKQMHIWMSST
T6 sequence (P14616 27-1297): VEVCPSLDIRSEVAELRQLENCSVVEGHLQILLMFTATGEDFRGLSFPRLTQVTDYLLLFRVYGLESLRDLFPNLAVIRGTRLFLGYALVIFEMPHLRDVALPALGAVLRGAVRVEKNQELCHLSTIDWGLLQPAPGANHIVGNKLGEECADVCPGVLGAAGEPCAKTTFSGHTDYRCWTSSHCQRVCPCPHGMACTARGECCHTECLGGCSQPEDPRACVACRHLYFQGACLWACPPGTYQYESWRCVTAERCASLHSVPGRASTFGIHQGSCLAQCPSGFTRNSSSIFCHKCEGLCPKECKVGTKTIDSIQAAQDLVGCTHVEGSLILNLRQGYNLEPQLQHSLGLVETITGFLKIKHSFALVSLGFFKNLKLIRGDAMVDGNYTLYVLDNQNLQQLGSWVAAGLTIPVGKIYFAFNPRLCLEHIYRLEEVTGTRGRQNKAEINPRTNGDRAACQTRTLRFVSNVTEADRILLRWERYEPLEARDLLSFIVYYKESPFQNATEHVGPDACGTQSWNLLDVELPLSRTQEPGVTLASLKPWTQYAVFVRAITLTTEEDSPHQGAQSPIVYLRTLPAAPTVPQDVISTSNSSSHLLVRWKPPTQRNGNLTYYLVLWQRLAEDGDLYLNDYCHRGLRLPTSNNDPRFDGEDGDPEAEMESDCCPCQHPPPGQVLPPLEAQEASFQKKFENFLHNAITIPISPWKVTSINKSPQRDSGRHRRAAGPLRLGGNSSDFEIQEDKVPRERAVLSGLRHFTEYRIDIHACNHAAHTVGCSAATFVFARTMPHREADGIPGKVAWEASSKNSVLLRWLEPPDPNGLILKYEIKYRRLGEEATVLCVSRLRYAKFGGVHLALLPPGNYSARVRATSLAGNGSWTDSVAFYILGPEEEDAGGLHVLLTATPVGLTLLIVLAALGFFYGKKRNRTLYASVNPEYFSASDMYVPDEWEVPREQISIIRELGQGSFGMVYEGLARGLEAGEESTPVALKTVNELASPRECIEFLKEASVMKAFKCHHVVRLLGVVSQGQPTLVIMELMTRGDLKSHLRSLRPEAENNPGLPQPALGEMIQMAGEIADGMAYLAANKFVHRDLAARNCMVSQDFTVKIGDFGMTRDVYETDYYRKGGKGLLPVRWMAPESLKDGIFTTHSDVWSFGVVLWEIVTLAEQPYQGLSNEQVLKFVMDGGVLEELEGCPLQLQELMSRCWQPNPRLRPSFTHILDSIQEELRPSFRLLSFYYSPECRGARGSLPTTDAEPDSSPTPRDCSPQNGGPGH
T12 sequence (Q62868 2-543 limits assumed): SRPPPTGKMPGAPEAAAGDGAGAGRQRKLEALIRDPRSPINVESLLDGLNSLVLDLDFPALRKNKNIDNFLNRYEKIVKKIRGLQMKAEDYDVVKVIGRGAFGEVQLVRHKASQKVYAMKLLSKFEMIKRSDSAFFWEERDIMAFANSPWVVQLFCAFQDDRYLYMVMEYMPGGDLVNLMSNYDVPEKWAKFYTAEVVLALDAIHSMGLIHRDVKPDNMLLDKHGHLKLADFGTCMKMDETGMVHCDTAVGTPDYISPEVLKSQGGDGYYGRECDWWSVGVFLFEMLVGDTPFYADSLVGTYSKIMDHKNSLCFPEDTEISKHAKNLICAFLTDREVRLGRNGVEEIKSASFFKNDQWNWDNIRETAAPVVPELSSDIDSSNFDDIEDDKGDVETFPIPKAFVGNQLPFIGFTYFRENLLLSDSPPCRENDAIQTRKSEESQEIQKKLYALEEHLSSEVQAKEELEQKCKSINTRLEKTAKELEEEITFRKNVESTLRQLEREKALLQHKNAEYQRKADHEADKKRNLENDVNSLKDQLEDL
T9 sequence (O75582 whole entry): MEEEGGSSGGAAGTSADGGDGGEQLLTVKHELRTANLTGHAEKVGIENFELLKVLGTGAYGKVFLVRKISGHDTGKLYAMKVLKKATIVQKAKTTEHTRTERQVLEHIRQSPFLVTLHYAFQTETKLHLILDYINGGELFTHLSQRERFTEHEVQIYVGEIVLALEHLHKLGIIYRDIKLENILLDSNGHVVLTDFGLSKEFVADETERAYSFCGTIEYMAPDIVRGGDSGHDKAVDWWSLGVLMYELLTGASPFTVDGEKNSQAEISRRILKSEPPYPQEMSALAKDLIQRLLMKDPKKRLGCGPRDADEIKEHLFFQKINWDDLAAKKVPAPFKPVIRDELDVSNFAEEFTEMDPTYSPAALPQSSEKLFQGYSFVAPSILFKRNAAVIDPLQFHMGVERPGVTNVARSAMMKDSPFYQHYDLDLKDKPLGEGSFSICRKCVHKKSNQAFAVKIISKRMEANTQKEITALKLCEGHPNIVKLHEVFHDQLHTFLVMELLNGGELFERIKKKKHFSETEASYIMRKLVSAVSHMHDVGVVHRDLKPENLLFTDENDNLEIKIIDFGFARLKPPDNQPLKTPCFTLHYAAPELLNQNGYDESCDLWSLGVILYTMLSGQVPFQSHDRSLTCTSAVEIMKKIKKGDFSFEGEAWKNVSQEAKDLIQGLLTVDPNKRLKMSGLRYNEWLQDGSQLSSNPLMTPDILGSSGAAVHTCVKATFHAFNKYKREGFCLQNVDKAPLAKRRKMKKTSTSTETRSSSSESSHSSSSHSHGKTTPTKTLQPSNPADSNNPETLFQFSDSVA
T3 sequence (P49841 whole entry): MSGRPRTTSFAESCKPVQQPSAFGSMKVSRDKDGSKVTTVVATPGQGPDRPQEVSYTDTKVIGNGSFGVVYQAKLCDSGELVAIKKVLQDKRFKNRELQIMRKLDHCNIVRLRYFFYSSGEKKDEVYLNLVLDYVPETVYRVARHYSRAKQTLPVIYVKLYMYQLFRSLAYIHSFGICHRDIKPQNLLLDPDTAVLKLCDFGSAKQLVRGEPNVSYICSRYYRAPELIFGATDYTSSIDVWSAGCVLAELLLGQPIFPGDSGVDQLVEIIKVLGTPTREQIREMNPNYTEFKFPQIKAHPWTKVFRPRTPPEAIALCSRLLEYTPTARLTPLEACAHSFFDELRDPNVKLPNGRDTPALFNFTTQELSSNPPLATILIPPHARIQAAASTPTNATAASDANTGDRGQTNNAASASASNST

Cn1ncc(Cl)c1-c1cc(C(=O)N[C@H](CN)Cc2cccc(F)c2)sc1Cl [GSK2110183]
inhibition at 0.5 µM (MRCKα(h)): -9% | inhibition at 10 µM (MRCKα(h)): -5% | inhibition at 0.5 µM (PKG1β(h)): 101% | inhibition at 10 µM (PKG1β(h)): 101% | inhibition at 0.5 µM (GSK3β(h)): 4% | inhibition at 10 µM (GSK3β(h)): 5% | inhibition at 0.5 µM (FGFR4(h)): 0% | inhibition at 10 µM (FGFR4(h)): 19% | inhibition at 0.5 µM (NEK6(h)): -25% | inhibition at 10 µM (NEK6(h)): -11% | IC50 (RSK1): 316 nM | inhibition at 0.5 µM (IRR(h)): -11% | inhibition at 10 µM (IRR(h)): -8% | inhibition at 0.5 µM (PKCα(h)): 2% | inhibition at 10 µM (PKCα(h)): 40% | inhibition at 0.5 µM (GRK5(h)): -8% | inhibition at 10 µM (GRK5(h)): -1% | inhibition at 0.5 µM (MSK1(h)): 85% | inhibition at 10 µM (MSK1(h)): 98% | inhibition at 0.5 µM (Pim-3(h)): -25% | inhibition at 10 µM (Pim-3(h)): -13% | inhibition at 0.5 µM (Abl (Q252H) (h)): 6% | inhibition at 10 µM (Abl (Q252H) (h)): 11% | inhibition at 0.5 µM (ROCK-II(r)): 73% | inhibition at 10 µM (ROCK-II(r)): 97% | inhibition at 0.5 µM (EphA3(h)): 1% | inhibition at 10 µM (EphA3(h)): 11%

Cn1ncc(Cl)c1-c1cc(C(=O)N[C@H](CN)Cc2ccc(F)c(F)c2)oc1Cl [GSK2141795]
inhibition at 0.5 µM (MRCKα(h); 0.5 µM, read-out: % Inhibition): -6% | inhibition at 10 µM (MRCKα(h); 10 µM, read-out: % Inhibition): -2% | inhibition at 0.5 µM (PKG1β(h); 0.5 µM, read-out: % Inhibition): 101% | inhibition at 10 µM (PKG1β(h); 10 µM, read-out: % Inhibition): 100% | inhibition at 0.5 µM (GSK3β(h); 0.5 µM, read-out: % Inhibition): -8% | inhibition at 10 µM (GSK3β(h); 10 µM, read-out: % Inhibition): -13% | inhibition at 0.5 µM (FGFR4(h); 0.5 µM, read-out: % Inhibition): 24% | inhibition at 10 µM (FGFR4(h); 10 µM, read-out: % Inhibition): 19% | inhibition at 0.5 µM (NEK6(h); 0.5 µM, read-out: % Inhibition): -17% | inhibition at 10 µM (NEK6(h); 10 µM, read-out: % Inhibition): -22% | IC50 (RSK1): 200 nM | inhibition at 0.5 µM (IRR(h); 0.5 µM, read-out: % Inhibition): -16% | inhibition at 10 µM (IRR(h); 10 µM, read-out: % Inhibition): -11% | inhibition at 0.5 µM (PKCα(h); 0.5 µM, read-out: % Inhibition): 10% | inhibition at 10 µM (PKCα(h); 10 µM, read-out: % Inhibition): 62% | inhibition at 0.5 µM (GRK5(h); 0.5 µM, read-out: % Inhibition): 4% | inhibition at 10 µM (GRK5(h); 10 µM, read-out: % Inhibition): 43% | inhibition at 0.5 µM (MSK1(h); 0.5 µM, read-out: % Inhibition): 90% | inhibition at 10 µM (MSK1(h); 10 µM, read-out: % Inhibition): 95% | inhibition at 0.5 µM (Pim-3(h); 0.5 µM, read-out: % Inhibition): -10% | inhibition at 10 µM (Pim-3(h); 10 µM, read-out: % Inhibition): -4% | inhibition at 0.5 µM (Abl (Q252H) (h); 0.5 µM, read-out: % Inhibition): -1% | inhibition at 10 µM (Abl (Q252H) (h); 10 µM, read-out: % Inhibition): 3% | inhibition at 0.5 µM (ROCK-II(r); 0.5 µM, read-out: % Inhibition): 72% | inhibition at 10 µM (ROCK-II(r); 10 µM, read-out: % Inhibition): 98% | inhibition at 0.5 µM (EphA3(h); 0.5 µM, read-out: % Inhibition): -7% | inhibition at 10 µM (EphA3(h); 10 µM, read-out: % Inhibition): 21%
